Data on one molecule can be found in US8729026B2, “Method for inhibiting autophagy of motor neurons” (China Medical University, priority 2012, dated 2014).

Data set [1] has as its system SOD1-G93A transgenic mice. Nature of the data set: BBB Locomotor Rating Scale of hind limbs of SOD1-G93A transgenic mice. In kind it is in vivo, mouse. Particulars: oral, 500 mg/kg-body weight once daily from 60 days of age; normal mice 21 points. As for the experimental part:
SOD1-G93A transgenic mice (60-day-old) were treated with butylidenephthalide by oral administration, with a dosage of 500 mg/kg-body weight once daily. After the mice were treated for 30 days, the hind limbs of the mice were examined by BBB scale (Basso, Beattie, and Bresnahan (BBB) Locomotor Rating Scale). The BBB scale of the hind limbs of normal mice was 21 points, while the BBB scale of disease-progressed SOD1-G93A transgenic mice decreased from 21 to 0 points, wherein the lower scale represents a more severe action disorder in the mice. BBB scale is used to record the drug efficiency.

Data set [2] relates to NSCs (neural stem cells). The data set can be described thus: Cellular experiment: H2O2-stimulated autophagy of NSCs, LC3-II by Western blotting. In kind it is cell-based, mouse. The conditions noted are these: 10 μg/mL butylidenephthalide for 12 hours, then H2O2 (2500 μM/mL) for 12 hours. How it is done: Cellular experiment was performed by using NSCs (neural stem cells) which can differentiate into mouse motor neurons to imitate mouse motor neurons.
NSCs were incubated in a culture dish (10 cm in diameter). The cells were washed with PBS when grown to a density of 60% confluence, and treated with different concentrations of butylidenephthalide for 12 hours. The cells were then treated with H2O2 (2500 μM/mL) for 12 hours to stimulate the autophagy of cells. Then, the cells were collected and the proteins were extracted, and the protein expression level of LC3-II in NSC was analyzed by SDS-PAGE and Western blotting.
(A western blot detects proteins with antibodies after separation by electrophoresis.)

In data set [3] the test system is LC3-II. The data set can be described thus: Western blotting of autophagy biomarker LC3-II in spinal cord of SOD1-G93A transgenic mice. Type of data set: in vivo, mouse. The conditions noted are these: compared with untreated control; oral 500 mg/kg-body weight once daily, sacrificed in extremis; β-actin internal control. How it is done: SOD1-G93A transgenic mice (60-day-old) were treated with butylidenephthalide by oral administration, with a dosage of 500 mg/kg-body weight once daily. It has been indicated by research that SOD1-G93A transgenic mice lost its spinal motor neurons because of the significant increase of autophagy during the last phase of amyotrophic lateral sclerosis (which can be seen in In vivo optical imaging of motor neuron autophagy in a mouse model of amyotrophic lateral sclerosis. Autophagy 7:9, 1-8; September 2011, which is entirely incorporated hereinto by reference). Therefore, in this example, the SOD1-G93A transgenic mice in experimental group were sacrificed in extremis to collect their spinal cord, and the proteins were extracted from the spinal cord to perform Western blotting and to analyze the protein biomarker of autophagy, LC3-II, which was used to determine whether autophagy occurred in the lumbar spinal motor neurons of the mice, wherein β-actin was used as an internal control.

A short description of data set [4]: Phase II metabolism assay, human cryopreserved hepatocytes, LC-MS/MS metabolite identification. In kind it is in vitro ADME. Particulars: butylidenephthalide 50 μM, 37° C., 6 hours. The text has this:
(§1) It has been known that the medicine metabolic pathway within an organism's liver can be primarily divided into phase I and phase II metabolism. Phase I metabolism occurs mainly by the redox reaction or hydrolysis reaction of medicine, and phase II metabolism occurs mainly by […]. This example simulated the phase I and II metabolism of butylidenephthalide that occur within an organism's liver by respectively mixing butylidenephthalide with hepatic microsomes or cryopreserved hepatocytes in vitro, and the products in the reaction solution were analyzed by liquid chromatograph-tandem mass spectrometer (LC-MS/MS) to identify the metabolites and the metabolic profile. The experimental steps were as follows:
(§2) William's E medium containing 5×10^5 thawed human, rat or dog hepatocytes were respectively added into a 12-well culture dish, and the cells were cultured for 6 hours. Then, 0.5 mL of butylidenephthalide (50 μM) was added into the culture dish. After the cells were incubated at 37° C., 95% relative humidity and 5% CO2 for 6 hours, 2 mL of acetonitrile (100%) was added to terminate the reaction. The sample was collected, mixed adequately, and centrifuged at 45000 g, 4° C. for 10 minutes. The supernatant was then collected, dried, and analyzed by LC-MS/MS to identify the metabolites. […]

Data set [5] deals with SOD1-G93A transgenic mice. Nature of the data set: Survival of SOD1-G93A transgenic mice (amyotrophic lateral sclerosis model). Type of data set: in vivo, mouse. Particulars: 60-day-old SOD1-G93A transgenic mice, oral, 500 mg/kg-body weight once daily; for Survival days: n = 8, 500 mg/kg. The source says:
It has been known that about 20% of amyotrophic lateral sclerosis patients were associated with mutations in the gene that encodes Cu/Zn superoxide dismutase enzyme (SOD1), and G93A was the major mutation site. […] A SOD1-G93A transgenic mouse will show the symptoms of amyotrophic lateral sclerosis within about 90±5 days postnatal and will die within about 125±5 days postnatal.
This example used the above SOD1-G93A transgenic mice as the object of study to perform in vivo analysis. SOD1-G93A transgenic mice (60-day-old) were treated with butylidenephthalide (purchased from ECHO Chemical) by oral administration, with a dosage of 500 mg/kg-body weight once daily, wherein the unit “mg/kg-body weight” means the dosage required per kg-body weight.

Data set [6] is described as follows: Phase II metabolism assay, rat cryopreserved hepatocytes, LC-MS/MS metabolite identification. Type of data set: in vitro ADME. The conditions noted are these: butylidenephthalide 50 μM, 37° C., 6 hours.
Source text: as §1, §2

The nature of data set [7]: Phase II metabolism assay, dog cryopreserved hepatocytes, LC-MS/MS metabolite identification. In kind it is in vitro ADME. The conditions noted are these: butylidenephthalide 50 μM, 37° C., 6 hours.
Source text: as §1, §2

Data set [8] in a line: Phase I metabolism assay, dog hepatic microsomes, LC-MS/MS metabolite identification. Type of data set: in vitro ADME. Particulars: butylidenephthalide 2 mM, dog hepatic microsomes 0.5 mg/mL, NADPH, 37° C., 60 minutes.
Source text: as §1
(§3) Butylidenephthalide (2 mM) was mixed respectively with K3PO4 buffer solution (100 mM, pH7.4) containing human, rats or dogs hepatic micrsomes (0.5 mg/mL). The mixture was maintained at 37° C. for 10 minutes, and then pre-warmed cofactors (NADPH (2 mM) and MgCl2 (3 mM)) were added thereto and the mixture was incubated at 37° C. for 60 minutes. Thereafter, 3-fold volume of acetonitrile containing 0.1% formic acid was added to the mixture to terminate the reaction. The mixture was centrifuged at 13000 rpm for 5 minutes, and the supernatant was then collected and analyzed by LC-MS/MS to identify the metabolites. […]

The nature of data set [9]: Phase I metabolism assay, rat hepatic microsomes, LC-MS/MS metabolite identification. In kind it is in vitro ADME. The conditions noted are these: butylidenephthalide 2 mM, rat hepatic microsomes 0.5 mg/mL, NADPH, 37° C., 60 minutes.
Source text: as §1, §3

The nature of data set [10]: Phase I metabolism assay, human hepatic microsomes, LC-MS/MS metabolite identification. The conditions noted are these: butylidenephthalide 2 mM, human hepatic microsomes 0.5 mg/mL, NADPH, 37° C., 60 minutes. Type of data set: in vitro ADME.
Source text: as §1, §3

The test system of data set [11] is spinal motor neurons. The data set can be described thus: Histochemical staining (hematoxylin and eosin): count of spinal motor neurons of SOD1-G93A transgenic mice. Type of data set: in vivo, mouse. The conditions noted are these: spinal cord, mice sacrificed in extremis, oral 500 mg/kg-body weight once daily. How it is done:
SOD1-G93A transgenic mice (60-day-old) were treated with butylidenephthalide by oral administration, with a dosage of 500 mg/kg-body weight once daily. The SOD1-G93A transgenic mice in the experimental group were sacrificed in extremis, and the spinal cord was collected to perform hematoxylin and eosin stain. The number of motor neurons in the spinal cord was observed and counted by using a microscope, and the data was compared with that of the untreated control group.

`CCCC=C1OC(=O)c2ccccc21` [butylidenephthalide]: the “BBB scale of the hind limbs, after 135 days (decreased rapidly)” value in [1] is 16 to 0 points. In addition, in [1], the “BBB scale of the hind limbs, from 125 to 135 days (decreased slowly)” value lay within 21 to 16 points. In addition, the “protein expression level of LC3-II in NSC” value in [2] was “decrease the protein expression level of LC3-II”. Further, in [3], the “protein expression level of LC3-II and pLC3-II in cervical, thoracic and lumbar spinal cord” value was “significantly decreased”. Further, the “metabolites produced (phase II metabolism)” value in [4], in data set [6] and in data set [7] was “compounds (11) to (14)” in each case. Also, the “life lengthened as compared to untreated control group” value in data set [5] was “about 22±2 days”. The Survival days entry is reported as “about 149±4.39 days” in data set [5] and 149 ± 4.39 days in data set [5] (listed as n-BP). Further, the “metabolites produced (phase I metabolism)” value in data set [8], in [9] and in data set [10] was “compounds (2) to (9)” each time. In addition, the “The number of motor neurons” value is 24 in data set [11] (control group 3 ± 3.1) and 24 ± 4.2 in [11] (control group 3 ± 3.1, listed as n-BP).
